Measured values as given in article PMC10388362, “Fluorescent Ligands Enable Target Engagement Studies for the Intracellular Allosteric Binding Site of the Chemokine Receptor CXCR2” (Journal of Medicinal Chemistry, 2023).
Where “and” joins values, the source holds several entries; their conditions need not be identical. Equal values may be shown once.

Biological target: T1, CXCR2 (Homo sapiens, UniProt P25025)
T1 construct: Promega pNLF1-C (Nluc) #CXCR20TN00; host or cells: HEK293T, transient transfection (PEI)
T1 sequence (P25025 1-360): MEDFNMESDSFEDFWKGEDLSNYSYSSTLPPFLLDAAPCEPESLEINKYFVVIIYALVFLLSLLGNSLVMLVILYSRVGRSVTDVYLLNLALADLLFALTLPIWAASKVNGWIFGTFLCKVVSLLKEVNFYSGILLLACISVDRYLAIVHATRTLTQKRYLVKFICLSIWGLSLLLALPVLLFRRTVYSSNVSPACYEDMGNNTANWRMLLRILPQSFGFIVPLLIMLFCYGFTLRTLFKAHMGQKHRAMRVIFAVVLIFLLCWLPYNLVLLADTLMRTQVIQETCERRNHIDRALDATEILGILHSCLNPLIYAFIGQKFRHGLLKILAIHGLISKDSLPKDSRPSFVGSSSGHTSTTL
Test: Live cell NanoBRET association and dissociation kinetic assay
Format: binding
Settings: 37 °C
Method: HEK293T cells were transfected with the plasmid (5.5 μg) for CXCR2_Nluc using polyethylenimine (PEI) as the transfection reagent (PEI/DNA ratio 3:1). After 24 h at 37 °C and 5% CO2, the cells were detached with DMEM and transferred to a white F-bottom 384-well plate (10,000 cells/well), which was coated with 5 μL/well poly-D-lysine (0.1 mg/mL, dissolved in water), and incubated for further 24 h at 37 °C and 5% CO2. Subsequently, the cells were washed with phosphate-buffered saline (Gibco DPBS, with CaCl2 and MgCl2). 15 μL of the assay medium (Gibco DMEM/F12, 15 mM HEPES, no phenol red supplemented with 5% FBS) and 5 μL of vivazine (final assay dilution: 1:300 in the assay buffer) were added and the cells were incubated at 37 °C for 90 min. Then, 5 μL of the fluorescent ligand (9a), diluted to varying concentrations (final assay concentrations: 10–0.5 nM in the assay medium) was transferred to a 384-well plate. For the determination of nonspecific binding, we added a solution of the fluorescent ligand (9a) and a nonlabeled competitor dissolved in the assay medium (3, final assay concentration: 10 μM) instead. BRET ratios were measured with a CLARIOstar microplate reader using 620/10 and 475/30 nm emission filters over time. The obtained data were analyzed using the association kinetics (two or more conc. of hot ligand) algorithm in PRISM9.5 (GraphPad) to determine the association kinetics.
After running the association assay in cells for at least 133 min, 1 μL of an unlabeled competitor dissolved in the assay buffer (3, final assay concentration: 10 μM) was added. For control experiments, we added 1 μL of the assay medium instead of the competitor solution. BRET ratios were measured with a CLARIOstar microplate reader using 620/10 and 475/30 nm emission filters over time. Specific BRET ratios were calculated as a difference of total and nonspecific binding. The obtained data were analyzed using the dissociation one phase exponential decay algorithm in PRISM9.5 (GraphPad) to determine the dissociation kinetics.

[1] = cells, 9a 1 nM, single determinations
[2] = cells, 9a 5 nM, single determinations
[3] = cells, 9a 10 nM, single determinations
[4] = live HEK293T cells expressing CXCR2_Nluc, mean

- koff [1]: 8.88e-05 s⁻¹
- koff [2]: 9.75e-05 s⁻¹
- koff [3]: 7.53e-05 s⁻¹
- Kd (live HEK293T cells expressing CXCR2_Nluc): 0.2 ± 0.02 nM
- koff [4]: 0.000122 s⁻¹
- kon [4]: 620000 M⁻¹ s⁻¹
- residence time tr [4]: 146 ± 10 min
- residence time (live HEK293T cells expressing CXCR2_Nluc, mean, read-out: residence time tr): 146 min
SMILES: Cc1ccc([C@H](Nc2c(Nc3cccc(C(=O)NCc4cn(CCOCCOCCOCCNC(=O)c5ccc(C(=O)[O-])c(-c6c7ccc(=[N+](C)C)cc-7oc7cc(N(C)C)ccc67)c5)nn4)c3O)c(=O)c2=O)C(C)(C)C)o1 [9a, (R)-4-((2-(2-(2-(2-(4-((3-((2-((2,2-Dimethyl-1-(5-methylfuran-2-yl)propyl)amino)-3,4-dioxocyclobut-1-en-1-yl)amino)-2-hydroxybenzamido)methyl)-1H-1,2,3-triazol-1-yl)ethoxy)ethoxy)ethoxy)ethyl)carbamoyl)-2-(6-(dimethylamino)-3-(dimethyliminio)-3H-xanthen-9-yl)benzoate]
- koff [min-1] [1]: 0.00837 min⁻¹ and 0.00621 min⁻¹ and 0.00861 min⁻¹
- tr [1]: 187.6 min and 119.5 min and 161.1 min and 116.1 min
- koff [min-1] [2]: 0.0072 min⁻¹ and 0.00855 min⁻¹ and 0.00476 min⁻¹
- tr [2]: 210.2 min and 170.9 min and 138.9 min and 117.0 min
- koff [min-1] [3]: 0.00791 min⁻¹ and 0.00898 min⁻¹ and 0.00859 min⁻¹
- tr [3]: 221.0 min and 126.4 min and 111.4 min and 116.4 min
